Measured values: patent publication US20180201592A1, “2-AMINO-1,3,4-THIADIAZINE AND 2-AMINO-1,3,4-OXADIAZINE BASED ANTIFUNGAL AGENTS” (F2G Limited, priority 2015, published 2018)

Tests used:
Conditions in all cases: banded MIC grade
Aspergillus fumigatus = assay: Minimum inhibitory concentration, YAG medium; type: cell-based
Method in brief: (§1)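 MIC, in mg/L, defined as the lowest drug level inhibiting growth by >70% relative to drug-free wells, judged by OD 485 nm after 24 hrs at 35° C. Spores (1-2×10^4 cfu/mL) were grown in YAG medium against doubling dilutions, usually 50-0.05 mg/L, repeated at 0.5-0.0005 mg/L where needed.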

A. fumigatus 210 [1] = assay: Minimum inhibitory concentration, YAG medium; type: cell-based, Aspergillus fumigatus
Method in brief: as §1

A. fumigatus = assay: Minimum inhibitory concentration, RPMI medium; type: cell-based
Method: (§2) Between 1 and 5 mgs of compound were accurately weighed out into a sterile Eppendorf tube. The compound was dissolved in DMSO to give a solution containing 5 mg/mL. Tubes were stored at −20° C. until required.
(§3) On the day of testing thawed solutions were vortex mixed to ensure homogeneity. 30 μL of solution was removed and added to 570 μL of sterile water in a separate sterile Eppendorf. The thoroughly mixed solution was used to prepare a series of doubling dilutions in water, in a deep well plate. Thirteen replicate plates were prepared using a Minitrak by aspirating 20 μL from each well into eleven clear polystyrene 96 well plates.
(§4) Assays were also performed in RPMI medium (Roswell Park Memorial Media 1640). To perform MIC tests in this medium, dilutions of compounds are prepared in microtitre plates as described above. Fungal strains to be tested are grown and harvested in an identical manner to that described above, and each organism suspension was diluted in RPMI medium, typically containing 2% glucose and 0.135 M MOPS buffer (pH 7.0) to 0.5-2×10^4cfu/mL, rather than in YAG medium. 80 μL of an organism suspension was added to each well of the plate containing drug dilutions.
(§5) This produced MIC plates with a drug range 50-0.05 mg/L and organism inocula of 1-2×10^4 cfu/mL. All plates were incubated for 24-48 hrs at 35° C. Growth was assessed by monitoring the optical density at 485 nm for each well. The MIC of a compound is the lowest drug concentration that inhibits growth of an organism by >80% compared with a drug free control. The following organisms were tested: C. albicans, C. parapsilosis, C. tropicalis, C. glabrata, C. krusei, A. niger, A. fumigatus, A. terreus, A. flavus, A. terreus 49, and A. fumigatus 210.

A. fumigatus 210 [2] = assay: Minimum inhibitory concentration, RPMI medium; type: cell-based
Method: as §2, §3, §4, §5

C. glabrata = assay: Minimum inhibitory concentration, RPMI medium; type: cell-based
Method in brief: (§6)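 Growth was measured by OD at 485 nm after 24-48 hrs at 35° C in RPMI 1640 medium. Compound was serially diluted twofold in water, starting from a 5 mg/mL DMSO stock solution.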

A. terreus 49 [3] = assay: Minimum inhibitory concentration, RPMI medium; type: cell-based
Method in brief: as §6

A. niger = assay: Minimum inhibitory concentration, RPMI medium; type: cell-based
Method in brief: as §6

C. tropicalis = assay: Minimum inhibitory concentration, RPMI medium; type: cell-based
Method in brief: as §6

C. parapsilosis = assay: Minimum inhibitory concentration, RPMI medium; type: cell-based
Method in brief: as §6

C. albicans = assay: Minimum inhibitory concentration, RPMI medium; type: cell-based
Method in brief: as §6

C. krusei = assay: Minimum inhibitory concentration, RPMI medium; type: cell-based
Method in brief: as §6

A. terreus = assay: Minimum inhibitory concentration, RPMI medium; type: cell-based
Method in brief: as §6

A. flavus = assay: Minimum inhibitory concentration, RPMI medium; type: cell-based
Method in brief: as §6

Aspergillus terreus = assay: Minimum inhibitory concentration, YAG medium; type: cell-based
Method in brief: (§7)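 MIC in mg/L, from OD485 growth read-out after 24 hrs at 35° C in YAG medium with Aspergillus spores. Doubling dilutions in water made from a 5 mg/mL DMSO stock.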

Aspergillus flavus = assay: Minimum inhibitory concentration, YAG medium; type: cell-based
Method in brief: as §7

Aspergillus niger = assay: Minimum inhibitory concentration, YAG medium; type: cell-based
Method in brief: as §7

A. terreus 49 [4] = assay: Minimum inhibitory concentration, YAG medium; type: cell-based, Aspergillus terreus
Method in brief: as §7

Structure (SMILES) | MIC grade, A. FUMIGATUS, YAG media (Aspergillus fumigatus) | MIC grade, A. FUMIGATUS 210, YAG media (A. fumigatus 210 [1]) | MIC grade, A. FUMIGATUS, RPMI media (A. fumigatus) | MIC grade, A. FUMIGATUS 210, RPMI media (A. fumigatus 210 [2]) | MIC grade, C. GLABRATA, RPMI media (C. glabrata) | MIC grade, A. TERREUS 49, RPMI media (A. terreus 49 [3]) | MIC grade, A. NIGER, RPMI media (A. niger) | MIC grade, C. TROPICALIS, RPMI media (C. tropicalis) | MIC grade, C. PARAPSILOSIS, RPMI media (C. parapsilosis) | MIC grade, C. ALBICANS, RPMI media (C. albicans) | MIC grade, C. KRUSEI, RPMI media (C. krusei) | MIC grade, A. TERREUS, RPMI media (A. terreus) | MIC grade, A. FLAVUS, RPMI media (A. flavus) | MIC grade, A. TERREUS, YAG media (Aspergillus terreus) | MIC grade, A. FLAVUS, YAG media (Aspergillus flavus) | MIC grade, A. NIGER, YAG media (Aspergillus niger) | MIC grade, A. TERREUS 49, YAG media (A. terreus 49 [4])
NC1=NN=C(CCCCOCc2ccccc2C(F)(F)F)CS1 | 3 (3: 0.2-1 mg/L) | 2 (2: 1-5 mg/L) | 1 (1: ≥20 mg/L) | 1 (1: ≥20 mg/L) | 1 (1: ≥20 mg/L) | 1 (1: ≥20 mg/L) | 1 (1: ≥20 mg/L) | 2 (2: 5-20 mg/L) | 1 (1: ≥20 mg/L) | 2 (2: 5-20 mg/L) | 2 (2: 5-20 mg/L) | 1 (1: ≥20 mg/L) | 1 (1: ≥20 mg/L) | 2 (2: 1-5 mg/L) | 2 (2: 1-5 mg/L) | 3 (3: 0.2-1 mg/L) | 2 (2: 1-5 mg/L)
NC1=NN=C(CCCCOCc2c(F)cccc2Cl)CS1 | 3 (3: 0.2-1 mg/L) | 3 (3: 0.2-1 mg/L) | 2 (2: 5-20 mg/L) | 1 (1: ≥20 mg/L) | 2 (2: 5-20 mg/L) | 2 (2: 5-20 mg/L) | 2 (2: 5-20 mg/L) | 2 (2: 5-20 mg/L) | 2 (2: 5-20 mg/L) | 2 (2: 5-20 mg/L) | 3 (3: 1-5 mg/L) | 2 (2: 5-20 mg/L) | 2 (2: 5-20 mg/L) | 3 (3: 0.2-1 mg/L) | 3 (3: 0.2-1 mg/L) | 3 (3: 0.2-1 mg/L) | 3 (3: 0.2-1 mg/L)
NC1=NN=C(CCCCOCc2ccccc2C2CC2)CS1 | 2 (2: 1-5 mg/L) | 2 (2: 1-5 mg/L) | 2 (2: 5-20 mg/L) | 1 (1: ≥20 mg/L) | 2 (2: 5-20 mg/L) | 2 (2: 5-20 mg/L) | 1 (1: ≥20 mg/L) | 3 (3: 1-5 mg/L) | 3 (3: 1-5 mg/L) | 3 (3: 1-5 mg/L) | 2 (2: 5-20 mg/L) | 2 (2: 5-20 mg/L) | 1 (1: ≥20 mg/L) | 2 (2: 1-5 mg/L) | 3 (3: 0.2-1 mg/L) | 2 (2: 1-5 mg/L) | 2 (2: 1-5 mg/L)
NC1=NN=C(CCCCOCc2cc(F)ccc2F)CS1 | 4 (4: <0.2 mg/L) | 4 (4: <0.2 mg/L) | 2 (2: 5-20 mg/L) | 2 (2: 5-20 mg/L) | 2 (2: 5-20 mg/L) | 2 (2: 5-20 mg/L) | 2 (2: 5-20 mg/L) | 3 (3: 1-5 mg/L) | 3 (3: 1-5 mg/L) | 3 (3: 1-5 mg/L) | 3 (3: 1-5 mg/L) | 2 (2: 5-20 mg/L) | 2 (2: 5-20 mg/L) | 4 (4: <0.2 mg/L) | 4 (4: <0.2 mg/L) | 4 (4: <0.2 mg/L) | 4 (4: <0.2 mg/L)
